Laboratory results taken from patent US20070231874A1, “Crystal of glucokinase protein, and method for drug design using the crystal” (priority 2002, published 2007).

Biological target: T1, glucokinase (Homo sapiens, UniProt P35557)
T1 sequence (P35557 1-466 isoform P35557-2): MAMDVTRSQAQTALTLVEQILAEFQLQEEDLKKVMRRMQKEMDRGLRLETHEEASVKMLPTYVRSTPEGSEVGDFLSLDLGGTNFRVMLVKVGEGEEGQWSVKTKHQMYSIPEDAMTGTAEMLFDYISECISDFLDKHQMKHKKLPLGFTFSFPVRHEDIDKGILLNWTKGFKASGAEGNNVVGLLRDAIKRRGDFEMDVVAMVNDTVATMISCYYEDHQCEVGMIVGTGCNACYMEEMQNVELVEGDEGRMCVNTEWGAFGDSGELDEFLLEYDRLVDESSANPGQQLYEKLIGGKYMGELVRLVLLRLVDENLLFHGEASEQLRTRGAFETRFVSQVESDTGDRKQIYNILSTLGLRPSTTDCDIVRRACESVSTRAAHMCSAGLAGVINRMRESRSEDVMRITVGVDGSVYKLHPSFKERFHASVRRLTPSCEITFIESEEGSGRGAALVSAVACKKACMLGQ
Assay: glucokinase activity assay of compounds found by pharmacophore screening (activation relative to control)
Type: biochemical
Conditions: glucose 2.5 M, ligand 10 μM; activity of glucokinase is 100% in the case of control
Source text: Library compounds were screened using, as research conditions, pharmacophore of a hydrogen bond acceptor and hydrogen bond donor generated respectively from NH and CO of a main chain of Arg63, hydrophobic pharmacophore formed in a space corresponding to a phenyl group of an aniline part of a ligand forming a complex, and the protein surface made based on the structure of a protein, by using a software UNITY (manufactured by Tripos), and the following compound 4 and compound 5 were obtained and assayed, to confirm activities of 780% and 560%. An activity of 780% means that when the activity of glucokinase is 100% in the case of control, the activity is enhanced up to 780% by these compound (using glucose 2.5 M, and ligand 10 μM). [drawing 15]

Row | activity of glucokinase (control = 100%) [%] | Compound
1 | 560 | CCOC(=O)c1csc(NC(=O)c2cc(Sc3ccncc3)ccc2N)n1 [compound 5]
2 | 780 | Nc1ccc(Oc2ccccc2)cc1C(=O)Nc1nccs1 [compound 4]
